Patent publication US20060094059A1, “Methods for identifying new drug leads and new therapeutic uses for known drugs” (Odyssey Thera, Inc., priority 2004, published 2006)
Like-named read-outs stand apart in the source and are kept apart here.

What was measured:
[1] = tested on: glioblastoma (U-87 MG) cells; experiment: MTT proliferation assay, glioblastoma; type: cell-based; details: Homo sapiens, Tumor Cell Glioblastoma (U-87 MG), 120 hours, read-out: Anti-proliferative IC-50
Experimental: (§1) Cells were maintained in various media as follows: A549, LoVo and PC-3 (Ham's F12K medium with 2 mM L-glutamine and 1.5 g/L sodium bicarbonate), MIA PaCa-2 (Dulbecco's modified Eagle's medium with 4 mM L-glutamine and 4.5 g/L glucose), U87-MG (MEM+Earle's BSS). Medium for each cell line was supplemented with 10% FBS and […] Penecillin/Streptomycin. All cells were grown in incubators set at 37° C., 5% CO2. Thiazolyl Blue Tetrazolium Bromide (MTT) based proliferation assays were performed to assess the anti-proliferative activities of the compounds on these cells. Cells were seeded in 96 well plates at a density of 750 cells/well 24 hours prior to compound treatment. The cells were incubated with varying concentrations of compounds for 120 hours. […] Drug treatment was performed in 5 replicate wells. Background absorbance was established by wells containing medium but no cells. Vehicle (DMSO) only was used as control. MTT (Sigma-Aldrich, St. Louis, Mo.) was added to each well at a final concentration of 0.5 mg/ml. Following a 2 hour incubation at 37° C., medium in the wells was replaced with 0.15 ml DMSO. The plates were agitated for 15 min using a microtiter plate shaker.

[2] = tested on: PAK4:Cofilin; experiment: Protein-fragment complementation assay PAK4:Cofilin; type: cell-based, human; details: hit in PAK4/CFL assay; drugs screened at 10 micromolar
Description: (§2) To construct dynamic assays for protein-protein complexes, we used a protein-fragment complementation assay strategy (PCAs) in intact human cells. (A variety of other suitable assays, and reporter options, are described in detail below.) The principle of PCA is that complementary polypeptide fragments (F[1] and F[2]) of a reporter protein or enzyme will fold into an active form only if fused to two proteins which interact and bring the complementary fragments of the reporter protein into proximity. Reconstitution of the fragments of the reporter protein generates a fluorescent signal that can be quantified in intact cells, and the amount of the signal is proportional to the amount of the protein-protein complex used in constructing the assay. Given a suitable reporter type, the subcellular location of the complex can also be measured.
(§3) Reporter fragments for PCA were generated by oligonucleotide synthesis (Blue Heron Biotechnology, Bothell, Wash.), starting with the sequence of yellow fluorescent protein (YFP). First, oligonucleotides coding for polypeptide fragments YFP[1]and YFP[2] […] Next, PCR mutagenesis was used to generate the mutant fragments IFP[1] and IFP[2]. The IFP[1] fragment corresponds to YFP[1]-(F46L, F64L, M153T) and the IFP[2] fragment corresponds to YFP[2]-(V163A, S175G). […] The YFP[1], YFP[2], IFP[1] and IFP[2] fragments were amplified by PCR to incorporate restriction sites and a linker sequence, described below, in configurations that would allow fusion of a gene of interest to either the 5′- or 3′-end of each reporter fragment. The reporter-linker fragment cassettes were subcloned into a mammalian expression vector (pcDNA3.1Z, Invitrogen) that had been modified to incorporate the replication origin (oriP) of the Epstein Barr virus (EBV). […] Additionally, these vectors still retain the SV40 origin, allowing for episomal expression in cell lines expressing the SV40 large T antigen (e.g. HEK293T, Jurkat or COS).
(§4) PCA fusion constructs were prepared for a proteins known to participate in cellular pathways that have been described in the scientific literature as being linked to cancer. The selection of protein-protein complexes used, and the rationale for their use, is provided in Table 1 and the gene identifiers for the cDNAs used in assay construction are provided in Table 2. The full coding sequence for each gene of interest was amplified by PCR from a sequence-verified full-length cDNA. Resulting PCR products were column purified (Centricon), digested with appropriate restriction enzymes to allow directional cloning, and fused in-frame to either the 5′ or 3′-end of YFP[1], YFP[2], IFP[1] or IFP[2] through a linker encoding a flexible 10 amino acid peptide (Gly.Gly.Gly.Gly.Ser)2. […] Recombinants in the host strains DH5-alpha (Invitrogen, Carlsbad, Calif.) or XL1 Blue MR (Stratagene, La Jolla, Calif.) were screened by colony PCR, and clones containing inserts of the correct size were subjected to end sequencing to confirm the presence of the gene of interest and in-frame fusion to the appropriate reporter fragment. A subset of fusion constructs were selected for full-insert sequencing by primer walking. DNAs were isolated using Qiagen MaxiPrep kits (Qiagen, Chatsworth, Calif.). PCR was used to assess the integrity of each fusion construct, by combining the appropriate gene-specific primer with a reporter-specific primer to confirm that the correct gene-fusion was present and of the correct size with no internal deletions.
(§5) HEK293 cells were maintained in MEM alpha medium (Invitrogen) supplemented with 10% FBS (Gemini Bio-Products), 1% penicillin, and 1% streptomycin, and grown in a 37° C. incubator equilibrated to 5% CO2. […] Up to 100 ng of the complementary YFP or IFP-fragment fusion vectors were co-transfected using Fugene 6 (Roche) according to the manufacturer's protocol.

[3] = tested on: Cofilin:LIMK2; experiment: Protein-fragment complementation assay Cofilin:LIMK2; type: cell-based, human; details: hit in Cofilin/LIMK2 assay; drugs screened at 10 micromolar
Description: as §2
(§6) Reporter fragments for PCA were generated by oligonucleotide synthesis (Blue Heron Biotechnology, Bothell, Wash.), starting with the sequence of yellow fluorescent protein (YFP). First, oligonucleotides coding for polypeptide fragments YFP[1]and YFP[2] […] Next, PCR mutagenesis was used to generate the mutant fragments IFP[1] and IFP[2]. The IFP[1] fragment corresponds to YFP[1]-(F46L, F64L, M153T) and the IFP[2] fragment corresponds to YFP[2]-(V163A, S175G). […]

[4] = tested on: human tumor cell lines; experiment: MTT proliferation assay and phase contrast images, cell line not given (FIGS. 5-10); type: cell-based; details: treated cells vs. DMSO control, cell line not named
Experimental: (§7) We used these methods to mine the known pharmacopeia for drugs with previously-unsuspected activity against cancer-related pathways. […] Hits from our cell-based screens were tested for antiproliferative activity in up to 5 different human tumor cell lines, as follows. First, drugs with significant activity in the cellular screen(s) were tested for their ability to block proliferation of a human tumor cell line (PC-3) at an initial concentration of 10 micromolar. For drugs with antiproliferative activity in PC-3 cells, dose-response curves to determine the IC50 for antiproliferative activity and additional tumor cell lines were tested to determine the breadth of activity. Methods for assessing the antiproliferative activity of the cell-based drug ‘hits’ are described below.
Cells were maintained in various media as follows: A549, LoVo and PC-3 (Ham's F12K medium with 2 mM L-glutamine and 1.5 g/L sodium bicarbonate), MIA PaCa-2 (Dulbecco's modified Eagle's medium with 4 mM L-glutamine and 4.5 g/L glucose), U87-MG (MEM+Earle's BSS). Medium for each cell line was supplemented with 10% FBS and […] Penecillin/Streptomycin. All cells were grown in incubators set at 37° C., 5% CO2. Thiazolyl Blue Tetrazolium Bromide (MTT) based proliferation assays were performed to assess the anti-proliferative activities of the compounds on these cells. Cells were seeded in 96 well plates at a density of 750 cells/well 24 hours prior to compound treatment. The cells were incubated with varying concentrations of compounds for 120 hours. Compound concentrations range from 0.03 to 100 microM (half log increments) except for alpha-Tomatine (0.001-100 microM, half log increments), Neriifolin (0.0002-100 microM) and Peruvoside (0.01-100 microM). Drug treatment was performed in 5 replicate wells. Background absorbance was established by wells containing medium but no cells. Vehicle (DMSO) only was used as control. MTT (Sigma-Aldrich, St. Louis, Mo.) was added to each well at a final concentration of 0.5 mg/ml. Following a 2 hour incubation at 37° C., medium in the wells was replaced with 0.15 ml DMSO. The plates were agitated for 15 min using a microtiter plate shaker. […] Mean absorbance values were calculated from 5 replicate wells of each drug treatment following subtraction of background absorbance from blank samples and plotted as a percentage of control.

[5] = tested on: non-small cell lung carcinoma (A549) cells; experiment: MTT proliferation assay, NSCLC; type: cell-based, Human; details: Tumor Cell NSCLC (A549), 120 hours, read-out: Anti-proliferative IC-50
Experimental: as §1

[6] = tested on: colon adenocarcinoma (LoVo) cells; experiment: MTT proliferation assay, colon; type: cell-based, Human; details: Tumor Cell Colon (LoVo), 120 hours, read-out: Anti-proliferative IC-50
Experimental: as §1

[7] = tested on: pancreatic carcinoma (MIA PaCa-2) cells; experiment: MTT proliferation assay, pancreatic; type: cell-based, Human; details: Tumor Cell Pancreatic (MIA PaCa-2), 120 hours, read-out: Anti-proliferative IC-50
Experimental: as §1

[8] = tested on: prostate adenocarcinoma (PC-3) cells; experiment: MTT proliferation assay, prostate; type: cell-based, Human; details: Tumor Cell Prostate (PC-3), MTT, 120 hours, read-out: Anti-proliferative IC-50
Experimental: as §7, §1

[9] = tested on: CDC42:PAK4 complexes; experiment: Protein-fragment complementation assay CDC42:PAK4; type: cell-based, human; details: hit in CDC42/PAK4 assay; drugs screened at 10 micromolar
Description: as §2, §3, §4, §5

[10] = tested on: Wee1:Cdc2; experiment: Protein-fragment complementation assay Wee1:Cdc2; type: cell-based, human; details: hit in Wee1/Cdc2 assay; drugs screened at 10 micromolar
Description: as §2, §6

[11] = tested on: HSP90:Eef2k; experiment: Protein-fragment complementation assay Hsp90:Eef2k; type: cell-based, human; details: hit in HSP90/Eef2k assay; drugs screened at 10 micromolar
Description: as §2
as §3, with “COS). […]” for “COS).”

[12] = tested on: MAX:MYC; experiment: Protein-fragment complementation assay MAX:MYC; type: cell-based, human; details: hit in MYC/MAX assay; drugs screened at 10 micromolar
Description: as §2, §6

[13] = tested on: EGFR:Grb2; experiment: Cell-based assay EGFR:Grb2; design: species or system human; details: hit in EGFR/Grb2 assay; drugs screened at 10 micromolar
Description: as §2, §6

[14] = tested on: BAD:BID; experiment: Protein-fragment complementation assay BAD:BID; type: cell-based, human; details: hit in BAD/BID assay; drugs screened at 10 micromolar
Description: as §2, §6

[15] = tested on: CDC25C:Cdc2; experiment: Protein-fragment complementation assay CDC25C:Cdc2; type: cell-based, human; details: hit in CDC2/CDC25C assay; drugs screened at 10 micromolar
Description: as §2, §6

[16] = tested on: Chk1:CDC25C; experiment: Protein-fragment complementation assay Chk1:CDC25C; type: cell-based, human; details: hit in CDC25C/Chk1 assay (with or without CPT not stated); drugs screened at 10 micromolar
Description: as §2, §6

| SMILES | IC50 [1] | IC50 ([5]; Homo sapiens) | IC50 ([6]; Homo sapiens) | IC50 ([7]; Homo sapiens) | IC50 ([8]; Homo sapiens) | Assay activity [2] | Assay activity [9] | also measured |
| --- | --- | --- | --- | --- | --- | --- | --- | --- |
| CC(C)c1c(C(=O)Nc2ccccc2)c(-c2ccccc2)c(-c2ccc(F)cc2)n1CC[C@@H](O)C[C@@H](O)CC(=O)O [Atorvastatin] | 4600 nM |  |  |  |  | CFL1/PAK4 |  | Assay activity [3]: CFL1/LIMK2,; cell count (phase contrast images) [4]: decreased the cell count |
| Fc1ccc(C(c2ccc(F)cc2)N2CCN(C/C=C/c3ccccc3)CC2)cc1 [Flunarizine] |  |  |  |  |  | PAK4/CFL, | CDC42/PAK4 |  |
| CO[C@H]1[C@H](O)[C@H](O[C@H]2CC[C@@]3(C)[C@H](CC[C@@H]4[C@@H]3CC[C@]3(C)[C@@H](C5=CC(=O)OC5)CC[C@]43O)C2)O[C@@H](C)[C@@H]1O [Neri$$olin, Neriifolin] |  |  |  |  |  | PAK4/CFL, | CDC42/PAK4 | IC50 [5]: 5 nM; IC50 [6]: 18 nM; IC50 [7]: 4 nM; IC50 [8]: 11 nM |
| CO[C@H]1[C@H](O)[C@H](O[C@H]2CC[C@@]3(C=O)[C@H](CC[C@@H]4[C@@H]3CC[C@]3(C)[C@@H](C5=CC(=O)OC5)CC[C@]43O)C2)O[C@@H](C)[C@@H]1O [Peruvoside] | 2 nM | 4 nM | 9 nM | 3 nM | 5 nM |  |  | Assay activity [10]: Wee1/Cdc2 |
| CN[C@H]1CC[C@@H](c2ccc(Cl)c(Cl)c2)c2ccccc21 [Sertraline] |  |  |  |  |  |  |  | Assay activity [11]: Eef2K/hsp90,; Assay activity [12]: MAX/MYC; Assay activity [13]: EGFR/Grb2,; Assay activity [14]: BAD/BID,; Assay activity [15]: CDC2/CDC25C,; cell count (phase contrast images) [4]: reduced the cell count |

More lines, main results first:

| IC50 [1] | IC50 ([5]; Homo sapiens) | IC50 ([6]; Homo sapiens) | IC50 ([7]; Homo sapiens) | IC50 ([8]; Homo sapiens) | SMILES | Assay activity [2] | Assay activity [9] | also measured |
| --- | --- | --- | --- | --- | --- | --- | --- | --- |
| 24600 nM | 24300 nM | 25800 nM | 8800 nM | 7680 nM | O=C(CCCN1CC=C(n2c(=O)[nH]c3ccccc32)CC1)c1ccc(F)cc1 [Droperidol] | PAK4/CFL |  |  |
| 1120 nM | 2230 nM | 1130 nM | 1930 nM | 1850 nM | CCCCCCCCNC(C)C(O)c1ccc(SC(C)C)cc1 (centres unmarked) [Suloctidil] | PAK4/CFL, | CDC42/PAK4 |  |
| 860 nM | 230 nM | 1400 nM | 377 nM | 630 nM | CC1(C)CCC2=C(O1)c1ccccc1C(=O)C2=O [beta-Lapachone] |  |  | Assay activity [13]: EGFR/Grb2,; Assay activity [16]: CDC25C/Chk1 |
